Among the data in patent US20230365592A1 (Agios Pharmaceuticals, Inc., priority 2022, published 2023) are AC50 values, retold here.

The structures appear in SMILES notation. Bounds are passed on as bounds.

For one experiment, the target named is T1, human PAH with the R408W mutation (Homo sapiens, UniProt P00439, R408W).
T1 construct: expressed in transfected cells
T1 sequence (P00439 1-452 R408W): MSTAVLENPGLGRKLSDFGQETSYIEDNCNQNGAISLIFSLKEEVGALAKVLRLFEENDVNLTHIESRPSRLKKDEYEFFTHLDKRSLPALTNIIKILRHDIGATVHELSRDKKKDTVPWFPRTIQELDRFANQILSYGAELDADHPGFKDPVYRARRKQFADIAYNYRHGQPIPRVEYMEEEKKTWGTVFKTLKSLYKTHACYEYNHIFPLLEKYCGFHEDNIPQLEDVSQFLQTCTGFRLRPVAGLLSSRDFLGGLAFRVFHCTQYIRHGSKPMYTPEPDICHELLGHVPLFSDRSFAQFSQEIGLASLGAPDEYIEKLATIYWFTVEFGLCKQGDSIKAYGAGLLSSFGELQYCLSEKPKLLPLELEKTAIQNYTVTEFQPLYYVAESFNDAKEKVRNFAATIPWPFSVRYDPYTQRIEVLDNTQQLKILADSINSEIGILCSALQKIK
Briefly: Cell Based Phenylalanine Flux Assay.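 Further: after compound treatment, cells received sepiapterin plus isotope-labelled Phenylalanine for 4 hours, then labelled Tyrosine in the medium was quantified, 10-point 2-fold dilution series run in duplicate.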 The following applies: A375 cells expressing R408W PAH; 24 hrs with compound, then 20 µM sepiapterin and 800 µM 13C9,15N-Phenylalanine for 4 hours; 13C-Tyrosine by LC-MS; average where tested multiple times; read-out: AC50.
Broadly, the AC50 is the concentration giving half of the maximal activity seen. Take `Cc1c(C2c3nc[nH]c3CCN2C(=O)c2nnc(-c3ccn(C)n3)o2)nn2ccccc12` (stereo not drawn): the concentration at half-maximal activity (AC50) lay in the range of 1000 to 5000 nM. Still for that read-out and setting: with `Cc1ccn2nc(C3c4nc[nH]c4CCN3C(=O)c3nnc(-c4ccn(C)n4)o3)cc2c1` (stereo not drawn) the figure was 1000 to 5000 nM. For `CC(C)(F)c1nnc(N2CCc3[nH]cnc3C2c2cc3c(C(F)(F)F)cccn3n2)o1` (stereo not drawn), the concentration at half-maximal activity (AC50) was above 5000 nM.

Regarding `Cn1cncc1-c1nnc(C(=O)N2CCc3[nH]cnc3C2c2cc3cccc(C(F)F)n3n2)o1` (stereo not drawn), the AC50 lay within 1000 to 5000 nM. The same measure, in the same setting: under `COCCNc1nnc(C(=O)N2CCc3[nH]cnc3C2c2cc3ccccn3n2)o1` (stereo not drawn) stands above 5000 nM. As to `O=C(c1nnc(N2CCC(F)CC2)o1)N1CCc2[nH]cnc2C1c1cc2ccccn2n1` (stereo not drawn), the AC50 lay in the range of 1000 to 5000 nM.

For `FC(F)c1cccn2nc(C3c4nc[nH]c4CCN3c3nnc(C4CC(F)(F)C4)o3)cc12` (stereo not drawn), the concentration at half-maximal activity (AC50) was in the range of 1000 to 5000 nM.

Staying with this experiment, now noted: A375 cells expressing human PAH R408W; 24 hrs compound incubation; 13C-Tyrosine by LC-MS; average where tested multiple times; read-out: AC50.
For the compound `CC(C)c1cccn2nc([C@H]3c4nc[nH]c4CCN3c3nnc(C(F)F)o3)cc12` [Example 2084, (R)-2-(difluoromethyl)-5-(4-(4-isopropylpyrazolo[1,5-a]pyridin-2-yl)-1,4,6,7-tetrahydro-5H-imidazo[4,5-c]pyridin-5-yl)-1,3,4-oxadiazole], the AC50 is above 5000 nM. For the compound `Cc1ccc2cc([C@@H]3c4nc[nH]c4CCN3C(=O)c3nnc(-c4cnn(C)c4)o3)nn2c1` [Example 2380, (S)-(5-(1-methyl-1H-pyrazol-4-yl)-1,3,4-oxadiazol-2-yl)(4-(6-methylpyrazolo[1,5-a]pyridin-2-yl)-6,7-dihydro-1H-imidazo[4,5-c]pyridin-5(4H)-yl)methanone], the half-maximal activity concentration (AC50) fell in the range of 1000 to 5000 nM.

Take `O=C(c1nnc(-c2cnn(C(F)F)c2)o1)N1CCc2[nH]cnc2[C@H]1c1cc2c(C3CC3)cccn2n1` [Example 1878, (S)-(4-(4-cyclopropylpyrazolo[1,5-a]pyridin-2-yl)-1,4,6,7-tetrahydro-5H-imidazo[4,5-c]pyridin-5-yl)(5-(1-(difluoromethyl)-1H-pyrazol-4-yl)-1,3,4-oxadiazol-2-yl)methanone]: the AC50 was 500 to 1000 nM. Same read-out and setting: with `Cc1cccn2nc([C@H]3c4nc[nH]c4CCN3c3cnccn3)cc12` [Example 1804, (R)-4-(4-methylpyrazolo[1,5-a]pyridin-2-yl)-5-(pyrazin-2-yl)-4,5,6,7-tetrahydro-1H-imidazo[4,5-c]pyridine] the figure was 1000 to 5000 nM; with `Cc1cccc2cc([C@H]3c4nc[nH]c4CCN3c3nnc(-c4cccnc4F)o3)nn12` [Example 2275, (R)-2-(2-fluoropyridin-3-yl)-5-(4-(7-methylpyrazolo[1,5-a]pyridin-2-yl)-1,4,6,7-tetrahydro-5H-imidazo[4,5-c]pyridin-5-yl)-1,3,4-oxadiazole], above 5000 nM. `O=C(c1nnc(C2CC2)o1)N1CCc2[nH]cnc2[C@@H]1c1cc2c(C3CC3)cccn2n1` [Example 1839, (R)-(5-cyclopropyl-1,3,4-oxadiazol-2-yl)(4-(4-cyclopropylpyrazolo[1,5-a]pyridin-2-yl)-1,4,6,7-tetrahydro-5H-imidazo[4,5-c]pyridin-5-yl)methanone]: the concentration at half-maximal activity (AC50) was above 5000 nM. Same read-out and setting: under `FC(F)Oc1cccn2nc([C@H]3c4nc[nH]c4CCN3c3ccc(C(F)(F)F)cn3)cc12` [Example 2273, (R)-4-(4-(difluoromethoxy)pyrazolo[1,5-a]pyridin-2-yl)-5-(5-(trifluoromethyl)pyridin-2-yl)-4,5,6,7-tetrahydro-1H-imidazo[4,5-c]pyridine] stands above 5000 nM; under `Clc1cccc2cc([C@@H]3c4nc[nH]c4CCN3c3ncccn3)nn12` [Example 2454, (S)-4-(7-chloropyrazolo[1,5-a]pyridin-2-yl)-5-(pyrimidin-2-yl)-4,5,6,7-tetrahydro-1H-imidazo[4,5-c]pyridine], 1000 to 5000 nM; under `O=C(c1nnc(-c2ccn(C(F)F)n2)o1)N1CCc2[nH]cnc2[C@@H]1c1cc2c(C3CC3)cccn2n1` [Example 1931, (R)-(4-(4-cyclopropylpyrazolo[1,5-a]pyridin-2-yl)-1,4,6,7-tetrahydro-5H-imidazo[4,5-c]pyridin-5-yl)(5-(1-(difluoromethyl)-1H-pyrazol-3-yl)-1,3,4-oxadiazol-2-yl)methanone], above 5000 nM. The same measure, in the same setting: with `Cn1nc(C(F)F)nc1C(=O)N1CCc2[nH]cnc2[C@H]1c1cc2cccc(Cl)n2n1` [Example 2396, (S)-(4-(7-chloropyrazolo[1,5-a]pyridin-2-yl)-6,7-dihydro-1H-imidazo[4,5-c]pyridin-5(4H)-yl)(3-(difluoromethyl)-1-methyl-1H-1,2,4-triazol-5-yl)methanone] the figure was 1000 to 5000 nM.

Staying with this experiment, now noted: A375 cells expressing human R408W PAH; 24 hrs compound incubation; 13C-Tyrosine by LC-MS; average where tested multiple times; read-out: AC50.
For `O=C(c1cnco1)N1CCc2[nH]cnc2[C@@H]1c1cc2c(F)cccn2n1` [Example 761, (R)-(4-(4-fluoropyrazolo[1,5-a]pyridin-2-yl)-6,7-dihydro-1H-imidazo[4,5-c]pyridin-5(4H)-yl)(oxazol-5-yl)methanone], the AC50 was in the range of 1000 to 5000 nM. Still for that read-out and setting: under `Cn1nc(C(F)F)cc1C(=O)N1CCc2[nH]cnc2[C@H]1c1cc2cccc(C(F)F)n2n1` [Example 1402, (S)-(3-(difluoromethyl)-1-methyl-1H-pyrazol-5-yl)(4-(7-(difluoromethyl)pyrazolo[1,5-a]pyridin-2-yl)-6,7-dihydro-1H-imidazo[4,5-c]pyridin-5(4H)-yl)methanone] stands 500 to 1000 nM. Turning to `O=C(c1nnc(-c2ccn(C(F)(F)F)n2)o1)N1CCc2[nH]cnc2[C@@H]1c1cc2c(Cl)cccn2n1` [Example 1477, (R)-(4-(4-chloropyrazolo[1,5-a]pyridin-2-yl)-6,7-dihydro-1H-imidazo[4,5-c]pyridin-5(4H)-yl)(5-(1-(trifluoromethyl)-1H-pyrazol-3-yl)-1,3,4-oxadiazol-2-yl)methanone], the AC50 lay within 1000 to 5000 nM.

As for `Cn1nc(C(F)(F)F)nc1C(=O)N1CCc2[nH]cnc2[C@H]1c1cc2c(Cl)cccn2n1` [Example 1052, (S)-(4-(4-chloropyrazolo[1,5-a]pyridin-2-yl)-6,7-dihydro-1H-imidazo[4,5-c]pyridin-5(4H)-yl)(1-methyl-3-(trifluoromethyl)-1H-1,2,4-triazol-5-yl)methanone], the AC50 is below 500 nM. Still for that read-out and setting: under `Cc1nn(C)cc1-c1nnc(C(=O)N2CCc3[nH]cnc3[C@H]2c2cc3cccc(C(F)F)n3n2)o1` [Example 1582, (S)-(4-(7-(difluoromethyl)pyrazolo[1,5-a]pyridin-2-yl)-6,7-dihydro-1H-imidazo[4,5-c]pyridin-5(4H)-yl)(5-(1,3-dimethyl-1H-pyrazol-4-yl)-1,3,4-oxadiazol-2-yl)methanone] stands 500 to 1000 nM.

For the compound `Cc1cc(C(=O)N2CCc3[nH]cnc3[C@H]2c2cc3c(C)cccn3n2)n(C)n1` [Example 900, (S)-(1,3-dimethyl-1H-pyrazol-5-yl)(4-(4-methylpyrazolo[1,5-a]pyridin-2-yl)-6,7-dihydro-1H-imidazo[4,5-c]pyridin-5(4H)-yl)methanone], the AC50 is below 500 nM.

`Cc1cccn2nc([C@H]3c4nc[nH]c4CCN3C(=O)c3oc([C@@H](C)O)nc3C(F)F)cc12` [Example 739, (4-(difluoromethyl)-2-((R)-1-hydroxyethyl)oxazol-5-yl)((R)-4-(4-methylpyrazolo[1,5-a]pyridin-2-yl)-6,7-dihydro-1H-imidazo[4,5-c]pyridin-5(4H)-yl)methanone]: the AC50 fell in the range of 1000 to 5000 nM. For `Cn1cc(-c2nnc(C(=O)N3CCc4[nH]cnc4[C@@H]3c3cc4ccc(Cl)cn4n3)o2)cn1` [Example 697, (R)-(4-(6-chloropyrazolo[1,5-a]pyridin-2-yl)-6,7-dihydro-1H-imidazo[4,5-c]pyridin-5(4H)-yl)(5-(1-methyl-1H-pyrazol-4-yl)-1,3,4-oxadiazol-2-yl)methanone], the half-maximal activity concentration (AC50) is above 5000 nM.

In the case of `O=C(c1nnc(-c2ccc(F)cn2)o1)N1CCc2[nH]cnc2[C@H]1c1cc2c(F)cccn2n1` [Example 881, (S)-(4-(4-fluoropyrazolo[1,5-a]pyridin-2-yl)-6,7-dihydro-1H-imidazo[4,5-c]pyridin-5(4H)-yl)(5-(5-fluoropyridin-2-yl)-1,3,4-oxadiazol-2-yl)methanone], the AC50 was below 500 nM. `O=C(c1ocnc1C(F)F)N1CCc2[nH]cnc2[C@H]1c1cc2ccccn2n1` [Example 630, (S)-(4-(difluoromethyl)oxazol-5-yl)(4-(pyrazolo[1,5-a]pyridin-2-yl)-6,7-dihydro-1H-imidazo[4,5-c]pyridin-5(4H)-yl)methanone]: the AC50 was below 500 nM. For the compound `Cc1nc([C@H](C)O)oc1C(=O)N1CCc2[nH]cnc2[C@H]1c1cc2c(C)cccn2n1` [Example 750, (2-((S)-1-hydroxyethyl)-4-methyloxazol-5-yl)((S)-4-(4-methylpyrazolo[1,5-a]pyridin-2-yl)-6,7-dihydro-1H-imidazo[4,5-c]pyridin-5(4H)-yl)methanone], the half-maximal activity concentration (AC50) is below 500 nM.

`Cc1nnc(C(=O)N2CCc3[nH]cnc3[C@@H]2c2cc3c(Cl)cccn3n2)o1` [Example 1107, (R)-(4-(4-chloropyrazolo[1,5-a]pyridin-2-yl)-6,7-dihydro-1H-imidazo[4,5-c]pyridin-5(4H)-yl)(5-methyl-1,3,4-oxadiazol-2-yl)methanone]: the half-maximal activity concentration (AC50) was in the range of 1000 to 5000 nM. On the same count and under the same terms, with `Cc1cccc2cc([C@H]3c4nc[nH]c4CCN3C(=O)c3cc(C(F)F)nn3C)nn12` [Example 1389, (R)-(3-(difluoromethyl)-1-methyl-1H-pyrazol-5-yl)(4-(7-methylpyrazolo[1,5-a]pyridin-2-yl)-6,7-dihydro-1H-imidazo[4,5-c]pyridin-5(4H)-yl)methanone] the figure was above 5000 nM.
